Reference: patent US20080187568A1, “Polymerization with precipitation of proteins for elution in physiological solution” (priority 2007, published 2008)
Read-outs that look alike come from different tables or passages of the source.

Assays:
[1] = cited from earlier work
[2] = Solubility / precipitation of the agent in hydrogel precursor solutions
Experimental: (§1) 0.68 grams 4 arm-n-hydroxysuccinimide ester of polyethylene glycol and carboxymethylene-butyric acid, average molecular weight 10000 Daltons (Shearwater 4 arm CM-HBA-NS-10K) is dissolved in 2.82 g 0.01M phosphate buffer at pH 4.0 and is sterile filtered. Solution B is prepared by dissolving 0.025 grams trilysine and 10 mg bovine fibrinogen (purchased from Sigma Chemicals) in 3.47 g 0.1M borate buffer at pH 9.5 with 0.1 mg/mL methylene blue for visualization. 1 ml of solution A and B are mixed to promote condensation polymerization. Trilysine and PEG-NHS ester react to form a crosslinked hydrogel.
(§2) 1.41 grams 4 arm-n-hydroxysuccinimide ester of polyethylene glycol carboxymethylene-butyric acid, average molecular weight 10000 Daltons (Shearwater 4 arm CM-HBA-NS-10K) and 100 mg of Bone Morphogenetic Protein 2 (BMP-2 protein, recombinant, Sigma catalog B3555) are mixed in a solid state as lyophilized powders and are dissolved/suspended in 2.96 ml 0.1 M HCl just prior to use. Solution B is prepared by dissolving 0.06 grams dilysine (purchased from Sigma Chemicals) in 7.2 g 0.1M borate buffer at pH 9.5 with 0.1 mg/mL methylene blue for visualization. 1 ml of solution A and B are mixed to promote condensation polymerization between dilysine and PEG-NHS ester. Dilysine and PEG-NHS ester react to form a crosslinked hydrogel. HCl is neutralized by borate buffer to form a neutral/basic solution medium.
(§3) 1.37 grams 4 arm-n-hydroxysuccinimide ester of polyethylene glycol carboxymethylene-butyric acid, average molecular weight 10000 Daltons (Shearwater 4 arm CM-HBA-NS-10K) is dissolved in 5.64 g 0.01M phosphate buffer at pH 4.0 and is sterile filtered. Solution B is prepared by dissolving 0.050 grams trilysine and 100 mg paclitaxel in 6.94 g 0.1M borate buffer at pH 9.5 with 0.5 mg/mL methylene blue for visualization. […] Trilysine and PEG-NHS ester react to form a crosslinked hydrogel.

[3] = pH 9.5
Experimental: as §1, §2, §3

Compound	solubility at pH 4 [1]	solubility at pH 7 [1]	solubility at pH 10 [1]	also measured
COc1c(N2C[C@@H]3CCCN[C@@H]3C2)c(F)cc2c(=O)c(C(=O)O)cn(C3CC3)c12 [Moxifloxacin]	11 g/L	0.13 g/L	0.14 g/L	
CO[C@H]1/C=C/O[C@@]2(C)Oc3c(C)c(O)c4c(O)c(c(/C=N/N5CCN(C)CC5)c(O)c4c3C2=O)NC(=O)/C(C)=C\C=C\[C@H](C)[C@H](O)[C@@H](C)[C@@H](O)[C@@H](C)[C@H](OC(C)=O)[C@@H]1C [Rifampicin, rifampicin]	1.6 g/L	0.16 g/L	1000 g/L	
CC(C)(C)NC[C@H](O)COc1nsnc1N1CCOCC1 [Timolol]	1000 g/L	160 g/L	2.4 g/L	
CC(=O)O[C@H]1C(=O)[C@@]2(C)[C@H]([C@H](OC(=O)c3ccccc3)[C@]3(O)C[C@H](OC(=O)[C@H](O)[C@@H](NC(=O)c4ccccc4)c4ccccc4)C(C)=C1C3(C)C)[C@]1(OC(C)=O)CO[C@@H]1C[C@@H]2O [paclitaxel]				solubility in borate buffer ([2]; 0.1M borate buffer at pH 9.5 (solution B)): insoluble
Cc1c(C)c2c(c(C)c1O)CC[C@@](C)(CCC[C@H](C)CCC[C@H](C)CCCC(C)C)O2 [vitamin E, alpha-Tocopherol]				solubility in borate buffer [3]: insoluble
Fibrinogen				precipitation on mixing with PEG-NHS ester solution ([2]; fibrinogen in trilysine solution mixed with PEG-NHS ester solution): precipitated
